Results published in patent publication US6033823A, “Mutated penicillin G acylase genes” (priority 1994, dated 2000).
Numbering of substitutions follows the chain as printed.

Tests used:
[1] = target: T1, Alcaligenes faecalis Penicillin G acylase mutant B:L56K (Alcaligenes faecalis, UniProt O34142, L321K); test: Deacylation kinetics and phenylacetic acid product inhibition, mutant B:L56K; type: biochemical; conditions: from progress curves of NIPAB deacylation, 25° C., 0.1 M NaH2PO4.H2O buffer pH 7.5, read-out: Ki Phenylacetic acid (inhibition constant, dissociation constant)
T1 construct: alpha 202 aa, beta 551 aa; recombinant, E. coli host
T1 sequence (O34142 27-228): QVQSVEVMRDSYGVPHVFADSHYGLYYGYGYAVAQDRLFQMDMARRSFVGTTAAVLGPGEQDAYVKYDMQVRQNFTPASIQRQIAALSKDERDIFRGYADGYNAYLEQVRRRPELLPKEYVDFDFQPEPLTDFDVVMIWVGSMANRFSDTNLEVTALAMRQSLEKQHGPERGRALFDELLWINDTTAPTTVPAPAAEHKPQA
T1 sequence (O34142 266-816 L321K): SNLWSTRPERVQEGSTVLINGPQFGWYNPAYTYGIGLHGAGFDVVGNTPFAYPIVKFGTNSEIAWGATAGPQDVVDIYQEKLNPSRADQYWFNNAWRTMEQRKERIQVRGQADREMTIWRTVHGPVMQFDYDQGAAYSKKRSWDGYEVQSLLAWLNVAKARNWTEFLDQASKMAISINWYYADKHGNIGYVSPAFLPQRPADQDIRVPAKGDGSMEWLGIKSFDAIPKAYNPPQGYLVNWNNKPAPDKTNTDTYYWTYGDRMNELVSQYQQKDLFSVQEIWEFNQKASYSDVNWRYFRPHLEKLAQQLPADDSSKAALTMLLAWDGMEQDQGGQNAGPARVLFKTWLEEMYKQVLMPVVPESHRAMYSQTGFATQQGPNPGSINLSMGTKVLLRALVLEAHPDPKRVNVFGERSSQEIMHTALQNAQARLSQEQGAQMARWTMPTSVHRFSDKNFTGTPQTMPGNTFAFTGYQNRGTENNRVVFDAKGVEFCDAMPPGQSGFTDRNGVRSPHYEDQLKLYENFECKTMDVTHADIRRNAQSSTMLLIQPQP
Experimental: In order to determine enzymatic activity the acylases were incubated with substrate at room temperature in buffered solution. In case β-lactamase impurity was expected to be present in the enzyme preparations, 1.0 mM -lactamase inhibitor 6-bromo-penicillanic acid was added to the assay. The reactions were stopped by adding an excess PMSF. For some mutants which were less sensitive to PMSF inhibition, the reactions were stopped by adding 0.5 M HCl or 0.5 M acetic acid until the pH was between 3 and 4. When reactions were subsequently analysed by HPLC, the reactions were stopped by dilution with the correponding elution solvent (see table 1). […]
The composition of the reaction mixtures was determined by high-performanceliquid chromatography (HPLC)(table 1). Concentrations were determined by using standards of known concentration.
In a continuous assay Penicillin G acylase was assayed spectro-fotometrically with the chromogenic substrate NIPAB [6-nitro-3-phenylacetamido-benzoic acid]. The liberation of 3-amino-6-nitrobenzoic acid was monitored by measuring the extinction at 405 nm in a Kontron 610 kinetic spectrofotometer. […]
Initial rate measurements were performed with excess substrate over the enzyme. Catalytic parameters were derived from least-squares fitting of the measured initial rates plotted for various substrate concentrations according to the Michaelis-Menten equation. […]

[2] = target: T2, Alcaligenes faecalis Penicillin G acylase mutant B:I177S (Alcaligenes faecalis, UniProt O34142, I442S); test: NIPAB kinetics and phenylacetic acid product inhibition, mutant B:I177S; type: biochemical; conditions: from progress curves of NIPAB deacylation, 25° C., 0.1 M NaH2PO4.H2O buffer pH 7.5, read-out: Ki Phenylacetic acid (inhibition constant, dissociation constant)
T2 construct: alpha 202 aa, beta 551 aa; recombinant, E. coli host
T2 sequence (O34142 27-228): T1 sequence (O34142 27-228)
T2 sequence (O34142 266-816 I442S): T1 sequence (O34142 266-816 L321K) with K56L, I177S
Experimental: In a continuous assay Penicillin G acylase was assayed spectro-fotometrically with the chromogenic substrate NIPAB [6-nitro-3-phenylacetamido-benzoic acid]. The liberation of 3-amino-6-nitrobenzoic acid was monitored by measuring the extinction at 405 nm in a Kontron 610 kinetic spectrofotometer. Measuring maximal rate, the assays were performed at 25° C. using 20 mM NaH2 PO4.H2 O at pH 7.5 with 20 mM NIPAB and 100 μl enzym solution (at a proper dilution). Initial rate measurements were performed with varying concentration of NIPAB.
Initial rate measurements were performed with excess substrate over the enzyme. Catalytic parameters were derived from least-squares fitting of the measured initial rates plotted for various substrate concentrations according to the Michaelis-Menten equation.
The complete conversion of NIPAB was followed as a funtion of time at 20, 50 and 100 μM NIPAB by following the increase in absorbtion at 405 nm. Products of this conversion are phenylacetic acid and 3-amino-6-nitrobenzoic acid. The conversion was performed at 25° C. in 0.1 M NaH2 PO4.H2 O buffer pH 7.5. The progress curves of the deacylation of NIPAB could be fitted very well when product inhibition by phenylacetic acid was taken into account. […]

`O=C(O)Cc1ccccc1` [phenylacetic acid] was tested, and the Ki [1] was 115 µM and the Ki [2] was 252 µM.
